Read-outs that look alike come from different tables or passages of the source. Strand notation (5' to 3'): a small letter for the sugar, then the base; units joined by * are phosphorothioate-linked, units joined directly phosphodiester-linked; [ ] holds rarer units or linkages, { } end groups; capitals alone tell only the bases. e = 2'-O-(2-methoxyethyl) (MOE); [5mC] = 5-methylcytosine
Key:
cancer = details: literature; cited from earlier work
[1] = U.S. Pat. No. 3,995,061, cited from earlier work; for toxicity: administered orally to human
[2] = cited from earlier work; for toxicity (LD50): IP or oral administration, U.S. Pat. No. 3,995,061, FIGS. 15A and 15B; for toxicity (shown to be non-toxic): in vivo
[3] = rat, in vivo, po; cited from earlier work
[4] = mouse, in vivo, po; cited from earlier work
[5] = test system: glucose transporter 1 (GLUT-1); details: Jeong J. H. et al. 2011; cited from earlier work
[6] = test system: vascular endothelial growth factor (VEGF); details: Jeong J. H. et al. 2011; cited from earlier work
HNRNPL = details: Gene HNRNPL; cited from earlier work
TDP-43 aggregation = details: iPS cell derived motor neurons, sporadic ALS; Burkhardt et al. 2013; cited from earlier work
hsHNRNP L mRNA = assay: Time-course experiment, ASOs at 30 nM, hnRNP L mRNA by bDNA in BE(2)-M17 cells; assay type: cell-based, Homo sapiens; details: 30 nM ASO, mock controls set to 100%, incubations 24 h, 48 h, 72 h, time point not given
Method: Lipofectamine3000 (LF3000) was again used as the transfection agent. The transfection mixture was prepared identically on three plates. […] In this case, no outliers were removed. Data were generated in biological quadruplicates.
FIG. 26 includes a comparison of results from this study next to results from Example 7. Observing the results after 24 h incubation, similar data from the analysis in Example 7 were reproduced here.

[7] = test system: human hnRNP L (hsHNRNP L) mRNA; assay: 5-point dose response (DRC) of ASOs, hnRNP L mRNA by branched DNA assay in BE(2)-M17 cells; assay type: cell-based; details: 24 h; for max. upregulation [%] (MV normalized hsHNRNP L/hsGAPDH): Lipofectamine3000, highest 120 nM, four 4-fold dilutions, bDNA, negative controls set to 100%; for EC50: hsHNRNP L mRNA upregulation, XLfit
From the text: Data were generated in biological quadruplicates. […] No significant decrease in hsGAPDH mRNA levels was observed.
Details and data are shown in Table 9A-9B, FIG. 24, and FIG. 25A-25E. In some cases, there was dose dependent hsHNRNP L on-target mRNA upregulation to varying degrees when cells were transfected with ASO compounds of interest.

hnRNP L [8] = assay: hnRNP L expression in human differentiated myoblasts after ASC treatment; assay type: cell-based
From the text: (§1) Such function of ASC was also found in human osteosarcoma cells (about 10-fold) and multiple disease models, see PCT publication no. WO/2019/236750, which is incorporated by reference herein in its entirety.

hnRNP L [9] = assay: hnRNP L levels after ASC treatment in SH-SY5Y human neuroblastoma cells; assay type: cell-based; details: FIG. 14B
Method: (§2) FIG. 14 is a gel image showing a comparison of hnRNP L protein levels in rat primary cortical neurons with or without ASC treatments at different doses. The rat neurons were treated with 10^−7 M or 10^−6 M ASC, or not treated as control (“Cont.”), and then lysed for western blot detection of protein expression levels of hnRNP L (the upper panel). The arrow points to hnRNP L protein bands (appears as a triplet). […] FIG. 14B is a gel image showing elevation of hnRNP L levels after ASC treatment in SH-SY5Y human neuroblastoma cells (CLT results).

hnRNP L [10] = details: cited from earlier work; for increase in the levels of hnRNP L: human osteosarcoma cells (U2OS)
hnRNP L [11] = assay: Western blot of hnRNP L protein in rat primary cortical neurons after ASC treatment; assay type: cell-based; details: 10^−7 M or 10^−6 M ASC, FIG. 14
Method: as §2, §1

Compound: CC(C=CC1(C)C(C)CCC(=O)C1C)=CCc1c(O)c(Br)c(C)c(C=O)c1O (centres unmarked) [3-bromoascochlorin, reference compound]
- antitumorigenic / anti-cancer properties (cancer): anti-cancer properties

Compound: CCOc1c(Cl)c(C)c(C=O)c(O)c1C/C=C(C)/C=C/C1(C)C(C)CCC(=O)C1C (centres unmarked) [4-O-ethyl-ascochlorin]
- toxicity [1]: low toxicity
- toxicity (LD50) [2]: low toxicity

Compound: COc1c(Cl)c(C)c(C=O)c(O)c1C/C=C(C)/C=C/[C@@]1(C)[C@H](C)CCC(=O)[C@@H]1C [MAC, 4-O-methylascochlorin]
- toxicity [3]: low toxicity
- toxicity [4]: low toxicity
- tolerability in clinical trials [1]: well tolerated
- toxicity [1]: low toxicity
- toxicity (LD50) [2]: low toxicity
- expression of GLUT-1 [5]: increases
- expression of VEGF [6]: increases
- antitumorigenic / anti-cancer properties (cancer): antitumorigenic properties

Compound: C=C1CC[C@H](O)C(C)(C)[C@@H]1CC/C(C)=C/Cc1c(O)c(Cl)c(C)c(C=O)c1O [acremochlorin A, reference compound]
- antitumorigenic / anti-cancer properties (cancer): anti-cancer properties

Compound: C/C(=C\Cc1c(O)c(Cl)c(C)c(C=O)c1O)CC/C=C(\C)[C@@H]1CC(=O)C(C)(C)O1 [ascofuranone]
- toxicity (shown to be non-toxic) [2]: non-toxic
- antitumorigenic / anti-cancer properties (cancer): antitumorigenic properties

Compound: C[C@H](CS)C(=O)N1CCC[C@H]1C(=O)O [captopril]
- Source (DSigDB signature, association with increased hnRNP L levels) (HNRNPL): D3(UP)

Compound: C[C@H]1O[C@@H](O[C@H]2[C@@H](O)C[C@H](O[C@H]3[C@@H](O)C[C@H](O[C@H]4CC[C@@]5(C)[C@H](CC[C@@H]6[C@@H]5C[C@@H](O)[C@]5(C)[C@@H](C7=CC(=O)OC7)CC[C@]65O)C4)O[C@@H]3C)O[C@@H]2C)C[C@H](O)[C@@H]1O [digoxin]
- Source (DSigDB signature, association with increased hnRNP L levels) (HNRNPL): D3(UP)
- hit in screen for compounds reducing TDP-43 aggregation (TDP-43 aggregation): hits confirmed in dose response assays

Compound: CCc1c2c(nc3ccc(OC(=O)N4CCC(N5CCCCC5)CC4)cc13)-c1cc3c(c(=O)n1C2)COC(=O)[C@]3(O)CC [irinotecan]
- Source (DSigDB signature, association with increased hnRNP L levels) (HNRNPL): D3(UP)

Compound: CN(C)C(=O)Oc1cccc([N+](C)(C)C)c1 [neostigmine bromide]
- Source (DSigDB signature, association with increased hnRNP L levels) (HNRNPL): D3(UP)

Compound: C[C@@H]1O[C@@H](O[C@@H]2C=C3CC[C@@H]4[C@H](CC[C@]5(C)[C@@H](c6ccc(=O)oc6)CC[C@]45O)[C@@]3(C)CC2)[C@H](O)[C@H](O)[C@H]1O [proscillaridin]
- Source (DSigDB signature, association with increased hnRNP L levels) (HNRNPL): D3(UP)
- hit in screen for compounds reducing TDP-43 aggregation (TDP-43 aggregation): hits confirmed in dose response assays

Compound: Skip-6A-13: ASO CAGTTCTGAAAGATGGCGTCCC (SEQ ID NO: 62), fully 2′-MOE, 5′-methyl C, phosphorothioate; exon 6A (antisense e[5mC]*eA*eG*eT*eT*e[5mC]*eT*eG*eA*eA*eA*eG*eA*eT*eG*eG*e[5mC]*eG*eT*e[5mC]*e[5mC]*e[5mC]; listed as Homo sapiens)
- MV normalized hsHNRNP L/hsGAPDH (hsHNRNP L mRNA): 56.0%
- max. upregulation [%] (MV normalized hsHNRNP L/hsGAPDH) [7]: 53.3%
- EC50 [7]: 3.97 nM

Compound: Skip-6A-14: ASO TTAGCACAGTTCTGAAAGATGG (SEQ ID NO: 63), fully 2′-MOE, 5′-methyl C, phosphorothioate; exon 6A (antisense eT*eT*eA*eG*e[5mC]*eA*e[5mC]*eA*eG*eT*eT*e[5mC]*eT*eG*eA*eA*eA*eG*eA*eT*eG*eG; listed as Homo sapiens)
- MV normalized hsHNRNP L/hsGAPDH (hsHNRNP L mRNA): 55.8%
- max. upregulation [%] (MV normalized hsHNRNP L/hsGAPDH) [7]: 52.3%
- EC50 [7]: 6.41 nM

Compound: Skip-6A-15: ASO AGTGAGTTAGCACAGTTCTGAA (SEQ ID NO: 64), fully 2′-MOE, 5′-methyl C, phosphorothioate; exon 6A (antisense eA*eG*eT*eG*eA*eG*eT*eT*eA*eG*e[5mC]*eA*e[5mC]*eA*eG*eT*eT*e[5mC]*eT*eG*eA*eA; listed as Homo sapiens)
- MV normalized hsHNRNP L/hsGAPDH (hsHNRNP L mRNA): 63.4%
- max. upregulation [%] (MV normalized hsHNRNP L/hsGAPDH) [7]: 55.8%
- EC50 [7]: 7.45 nM

Compound: Skip-6A-16: ASO CTTCAACAGTGAGTTAGCACAG (SEQ ID NO: 65), fully 2′-MOE, 5′-methyl C, phosphorothioate; exon 6A (antisense e[5mC]*eT*eT*e[5mC]*eA*eA*e[5mC]*eA*eG*eT*eG*eA*eG*eT*eT*eA*eG*e[5mC]*eA*e[5mC]*eA*eG; listed as Homo sapiens)
- MV normalized hsHNRNP L/hsGAPDH (hsHNRNP L mRNA): 53.2%
- max. upregulation [%] (MV normalized hsHNRNP L/hsGAPDH) [7]: 61.6%
- EC50 [7]: 4.93 nM

Compound: Skip-6A-17: ASO TGGACGCTTCAACAGTGAGTTA (SEQ ID NO: 66), fully 2′-MOE, 5′-methyl C, phosphorothioate; exon 6A (antisense eT*eG*eG*eA*e[5mC]*eG*e[5mC]*eT*eT*e[5mC]*eA*eA*e[5mC]*eA*eG*eT*eG*eA*eG*eT*eT*eA; listed as Homo sapiens)
- MV normalized hsHNRNP L/hsGAPDH (hsHNRNP L mRNA): 64.5%
- max. upregulation [%] (MV normalized hsHNRNP L/hsGAPDH) [7]: 46.9%
- EC50 [7]: 10.6 nM

Compound: Skip-6A-18: ASO TACCATTGGACGCTTCAACAGT (SEQ ID NO: 67), fully 2′-MOE, 5′-methyl C, phosphorothioate; exon 6A (antisense eT*eA*e[5mC]*e[5mC]*eA*eT*eT*eG*eG*eA*e[5mC]*eG*e[5mC]*eT*eT*e[5mC]*eA*eA*e[5mC]*eA*eG*eT; listed as Homo sapiens)
- MV normalized hsHNRNP L/hsGAPDH (hsHNRNP L mRNA): 42.7%
- max. upregulation [%] (MV normalized hsHNRNP L/hsGAPDH) [7]: 47.3%
- EC50 [7]: 9.1 nM

Compound: Skip-6A-19: ASO TTCTCTTACCATTGGACGCTTC (SEQ ID NO: 68), fully 2′-MOE, 5′-methyl C, phosphorothioate; exon 6A (antisense eT*eT*e[5mC]*eT*e[5mC]*eT*eT*eA*e[5mC]*e[5mC]*eA*eT*eT*eG*eG*eA*e[5mC]*eG*e[5mC]*eT*eT*e[5mC]; listed as Homo sapiens)
- MV normalized hsHNRNP L/hsGAPDH (hsHNRNP L mRNA): 62.4%
- max. upregulation [%] (MV normalized hsHNRNP L/hsGAPDH) [7]: 51.8%
- EC50 [7]: 7.36 nM

Compound: Skip-6A-20: ASO CTGTATTTTCTCTTACCATTGG (SEQ ID NO: 69), fully 2′-MOE, 5′-methyl C, phosphorothioate; exon 6A (antisense e[5mC]*eT*eG*eT*eA*eT*eT*eT*eT*e[5mC]*eT*e[5mC]*eT*eT*eA*e[5mC]*e[5mC]*eA*eT*eT*eG*eG; listed as Homo sapiens)
- MV normalized hsHNRNP L/hsGAPDH (hsHNRNP L mRNA): 68.3%
- max. upregulation [%] (MV normalized hsHNRNP L/hsGAPDH) [7]: 71.6%
- EC50 [7]: 5.04 nM

Compound: ascochlorin
- increase of hnRNP L expression levels (hnRNP L [8]): about 6 fold
- toxicity (shown to be non-toxic) [2]: non-toxic
- antitumorigenic / anti-cancer properties (cancer): antitumorigenic properties
- hnRNP L levels (hnRNP L [9]): elevation
- increase of hnRNP L levels (hnRNP L [10]; Kang J. H. et al. J Proteome Res. 2006): ~12 ×
- increase in the levels of hnRNP L (hnRNP L [10]): ≥ 10 fold
- increase in the levels of hnRNP L (hnRNP L [10]; listed as ASC): about 10 fold
- hnRNP L expression levels (hnRNP L [11]): increased

— patent US20250290074A1, “TARGETED TREATMENT OF SPLICEOPATHY-INDUCED NEUROLOGICAL DISORDERS” (Auttx, LLC, priority 2022, published 2025)
